The record followed here is patent US6511666B1, “Diagnostics and treatments of periodontal disease” (priority 1995, dated 2003).

The target of assay [1] is T1, 45 kDa Arg-specific proteinase (Porphyromonas gingivalis, UniProt P28784).
T1 construct: made in house; host or cells: native protein purified from sonicate of P. gingivalis W50 cells (Q-sepharose, Superose 12, Arg-sepharose 200 mM arginine eluant, Mono Q)
Briefly: biochemical. The class given is biochemical, P. gingivalis W50. The settings on record: for activity at 100 µM / activity at 1000 µM / activity at 10000 µM: read-out: Activity (%) of the 45 kDa Arg-specific proteinase.

The target of assay [2] is 48 kDa Lys-specific proteinase (PrtK48) (Porphyromonas gingivalis, UniProt Q51817). Format: biochemical, P. gingivalis W50.
In assay [3] the target is PrtR45, 45 kDa Arg-specific proteinase (Porphyromonas gingivalis W50). In words: cell-based or functional assay.
Where [4] appears, read: compound 1.0 mM, incubation also contained 1.0 mM 2-mercaptoethanol.
The mark [5] stands for this setting: compound 10.0 mM, incubation also contained 1.0 mM 2-mercaptoethanol.

T1 sequence (P28784 228-719): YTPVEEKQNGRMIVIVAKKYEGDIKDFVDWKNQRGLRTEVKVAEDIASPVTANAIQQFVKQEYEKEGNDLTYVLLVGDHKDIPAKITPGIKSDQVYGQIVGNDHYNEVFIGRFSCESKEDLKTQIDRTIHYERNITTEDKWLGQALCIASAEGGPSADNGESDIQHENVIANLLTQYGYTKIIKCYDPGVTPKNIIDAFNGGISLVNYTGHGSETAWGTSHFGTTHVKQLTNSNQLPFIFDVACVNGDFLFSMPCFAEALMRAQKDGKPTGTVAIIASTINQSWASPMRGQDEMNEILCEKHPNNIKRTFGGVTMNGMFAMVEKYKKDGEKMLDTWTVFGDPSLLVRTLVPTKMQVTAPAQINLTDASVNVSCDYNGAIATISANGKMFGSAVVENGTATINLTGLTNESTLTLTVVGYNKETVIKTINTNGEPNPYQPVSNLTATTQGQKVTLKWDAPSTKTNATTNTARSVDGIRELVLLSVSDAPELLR
48 kDa Lys-specific proteinase (PrtK48), sequence (Q51817 229-680 limits assumed): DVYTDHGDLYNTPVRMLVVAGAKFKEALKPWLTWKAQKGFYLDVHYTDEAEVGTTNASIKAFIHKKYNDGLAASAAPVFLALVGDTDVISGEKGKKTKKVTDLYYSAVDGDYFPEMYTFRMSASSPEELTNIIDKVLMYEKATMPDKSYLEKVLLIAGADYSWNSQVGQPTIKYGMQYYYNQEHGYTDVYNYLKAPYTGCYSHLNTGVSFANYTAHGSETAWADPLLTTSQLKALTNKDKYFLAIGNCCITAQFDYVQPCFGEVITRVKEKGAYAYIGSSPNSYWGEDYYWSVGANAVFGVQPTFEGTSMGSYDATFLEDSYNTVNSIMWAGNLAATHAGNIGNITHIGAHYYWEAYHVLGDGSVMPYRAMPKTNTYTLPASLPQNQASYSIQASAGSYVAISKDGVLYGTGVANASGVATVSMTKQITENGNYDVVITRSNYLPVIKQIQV
PrtR45, 45 kDa Arg-specific proteinase (Porphyromonas gingivalis W50), sequence (B2RM93 225-247): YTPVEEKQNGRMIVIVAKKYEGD

Regarding `N[C@@H](CS)C(=O)O` [L-cysteine], in assay [1], the “Effect on the Arg-specific 45 kDa enzyme (in words)” value is on record as “activated”, the activity at 100 µM was 183%, the activity at 1000 µM amounted to 320% and the activity at 10000 µM turned out to be 487%.

On to `OCCS` [2-mercaptoethanol], for which the “Activity (%) of the 45 kDa Arg-specific proteinase” value is given as 100% in assay [1] (compound 1.0 mM), 158% in assay [1] (compound 10.0 mM) and 189% in assay [1] (compound 50.0 mM).

As to `O[C@H](CS)[C@H](O)CS` (racemic) [Dithiothreitol], in assay [1], the activity at 1000 µM was 109% and the activity at 10000 µM stood at 174%.

For the compound `CC(=O)N[C@@H](CC(C)C)C(=O)N[C@@H](CC(C)C)C(=O)N[C@H](C=O)CCCNC(=N)N` [Leupeptin], the “Effect on the Lys-specific enzyme (in words)” value in assay [2] is given as “not inhibited”. Also, in assay [1], the “Effect on the Arg-specific 45 kDa enzyme (in words)” value is “inhibited” and the activity at 100 µM was 0%.

As for Leupeptin (peptide), in assay [3], the Activity (%) (amidolytic activity, leupeptin at 0.1 mM) was 0%.

On to `NCCc1ccc(S(=O)(=O)F)cc1` [AEBSF, [4-(2-aminoethyl)-benzenesulfonylfluoride]], for which the “Effect on the Arg-specific 45 kDa enzyme (in words)” value in assay [1] is given as “not inhibited”. Besides, the results for the “Activity (%) of the 45 kDa Arg-specific proteinase” value in assay [1] (setting [4]) and in assay [1] (setting [5]) were 93% and 80%, respectively.

Take `O=C(O)CN(CCN(CC(=O)O)CC(=O)O)CC(=O)O` [EDTA]: the “Effect on the Lys-specific enzyme (in words)” value in assay [2] was “not inhibited”. Besides, the “Effect on the Arg-specific 45 kDa enzyme (in words)” value in assay [1] was “inhibited”. In addition, the “Activity (%) of the 45 kDa Arg-specific proteinase” value in assay [1] (EDTA +Ca2+ 50.0 mM, incubation also contained 1.0 mM 2-mercaptoethanol) is 97%; in assay [1] (setting [4]) it was 100%; in assay [1] (setting [5]) it was 4%; in assay [1] (compound 50.0 mM, incubation also contained 1.0 mM 2-mercaptoethanol), 0%.

As for `c1cnc2c(c1)ccc1cccnc12` [o-phenanthroline], the “Activity (%) of the 45 kDa Arg-specific proteinase” value in assay [1] (setting [5]) is 100%.

Take `O=S(=O)(F)Cc1ccccc1` [PMSF, phenylmethyl sulfonyl fluoride]: in assay [1], the “Effect on the Arg-specific 45 kDa enzyme (in words)” value is reported as “not inhibited”. For the same compound, the “Activity (%) of the 45 kDa Arg-specific proteinase” value in assay [1] (setting [5]) is on record as 90%.

Regarding `O=C(O)c1cc[c]([Hg][Cl])cc1` [PCMB, p-chloromercuribenzoic acid], the “Activity (%) of the 45 kDa Arg-specific proteinase” value in assay [1] (setting [4]) was 100%; in assay [1] (setting [5]), 14%.

Regarding `O=C(O)CI` [Iodoacetic acid], in assay [1], the activity at 1000 µM was 82% and the activity at 10000 µM turned out to be 19%.
